Earlier results as cited in patent publication US20180243247A1, “DRUG COMBINATIONS FOR CEREBROVASCULAR DISEASE” (priority 2017, published 2018).
Read-outs that look alike come from different tables or passages of the source.

What was measured:
[1] = tested on: rodent models of CNS ischemia

Structure (SMILES)	calcium influx through the AMPA receptor (AMPA receptor)	neuroprotection ([1]; dose concentration of 0.1 mg/kg)	neuroprotection ([1]; lower doses than 0.1 mg/kg, monotherapy)	neuroprotective effects ([1]; rodent models of CNS ischemia)
NCCCNCCCCNCCC(=O)NCCCCCNC(=O)[C@H](CC(N)=O)NC(=O)Cc1ccc(O)cc1O [JSTX-3]	dramatically reduces calcium influx			
C=CC[C@@H]1/C=C(\C)C[C@H](C)C[C@H](OC)[C@H]2O[C@@](O)(C(=O)C(=O)N3CCCC[C@H]3C(=O)O[C@H](/C(C)=C/[C@@H]3CC[C@@H](O)[C@H](OC)C3)[C@H](C)[C@@H](O)CC1=O)[C@H](C)C[C@@H]2OC [Tacrolimus]		neuroprotective	not neuroprotective	exhibits neuroprotective effects
